# Measurements reported in paper PMC6279743, “A small molecule ApoE4-targeted therapeutic candidate that normalizes sirtuin 1 levels and improves cognition in an Alzheimer’s disease mouse model” (Scientific Reports, 2018).
# pEC50: −log10 of the molar value. Like-named read-outs stand apart in the source and are kept apart here.
# Key:
# [1] = test system: APP cleavage products in E4FAD mice; assay: Second oral 56-day study, APP-derived cleavage products in hippocampus; type: in vivo; details: oral 56 days, vs vehicle
# Method: (§1) E4FAD mice were 10–12 mo and NTg mice 7–9 mo at the start of the study.
# Mice were euthanized and blood/tissues collected 2 hrs after dosing on Day 56 by the method described above for PK. Hip and FrCx were collected for analysis of SirT1, sAPPα, and Aβ1-42 levels by AlphaLISA. For Aβ1-42 the Perkin Elmer kit AL276C was used. Protein concentrations were determined using the Bradford protein assay. The sAPPα and sAPPβ AlphaLISAs were similar to the SirT1 AlphaLISA (see Supplementary Fig. S3) but the former uses anti-sAPPα antibody AF1168 and 2B3-biotinylated antibodies and the latter an anti-sAPPβ antibody (IBL Cat. #18957) and an anti-N-terminal APP antibody (R&D Systems AF1168) instead of anti-SirT1 antibodies. Brain tissue and plasma were sent to IAS for A03 level analysis.
# patients = details: cited from earlier work
# [2] = Pharmacokinetics after subcutaneous (SQ) injection in mice; type: in vivo
# [3] = test system: SirT1 levels in A172-E4 cells; assay: Confirmation assay in A172-E4 cells, SirT1 AlphaLISA; type: cell-based, human; details: 50 μM A03 vs DMSO
# Method: Jesus Campagna, Patricia Spilman, Barbara Jagodzinska, Dongsheng Bai, Asa Hatami, Chunni Zhu, Tina Bilousova, Michael Jun, Chris Jean Elias, Johnny Pham, Gregory Cole, Mary Jo LaDu, Michael E. Jung, Dale E. Bredesen, and […]
# Confirmation assay in A172-E4 cells. Befo re transfection, A172 human glioblastoma cells were cultured in Dulbecco’s Modified Eagle Medium (DMEM) supplemented with 10% fetal bovine serum and 1% penicillin/streptomycin in a 37 °C incubator in an atmosphere of 5% CO2 in air. The day of transfection, the media was replaced with Opti-MEM reduced serum medium. Transient transfection with human ApoE4 and ApoE3 constructs in pcDNA3 mammalian expression vectors or empty vector (control) was performed in 96-well plates using a 1:1 mixture of two transfection reagents - Lipofectamine 2000 and siPORT amine - in Opti-MEM as previously described13. After 4 hr incubation with transfection reagents, medium was exchanged for fresh […]
# Cells were incubated with the compound for 60 hrs, then cell culture medium (for sAPPα) and cells (lysates for SirT1) were harvested and levels of sAPPα and SirT1
# E4FAD mice [4] = assay: Toxicity observation and body weights in 56-day study; type: in vivo
# Source text: as §1
# SirT1 mRNA = test system: SirT1 mRNA; design: method as in PMID 26791201; details: original studies, A172-E4 cells; cited from earlier work
# N2a-E4 cells = assay: Lysate protein concentration (Bradford assay); type: cell-based, murine; details: A03 at 5 or 50 μM
# Method: (§2) Compound in medium (50 µL, 2X) was loaded into a 96-well plate, then 4 × 10^4 cells were added to each well; 24 hrs later the medium was removed and cells lysed. Lysate protein concentration was determined using the Bradford assay according to the manufacturer’s instructions. SirT1 was determined in lysates using the SirT1 AlphaLISA as described above.
# E4FAD mice [5] = assay: Novel Object Recognition (NOR) in 56-day study; type: in vivo; details: total time with both objects, vs E4FAD Veh
# Method: as §1
# All mice underwent NOR testing the last week of dosing. Mice were acclimated to a 30 × 40 cm arena for 15 minutes 24 hrs before acquisition. Individual mice underwent acquisition by exposure to two identical objects for 10 min. and then were returned to the home cage overnight. For the probe, individual mice were returned to the arena wherein one of the objects had been changed. Mice were allowed to explore the objects for 10 minutes. Both the acquisition and probe were recorded on tripod-mounted video cameras. The number of discreet interactions with each object (nose within 1 cm of the object) and time spent with each object were scored by personnel blind to the treatment and genotype of the mice; scores were spot-checked by a second scorer. The discrimination index (DI) was calculated by subtracting time spent (or number of interactions) with the familiar object (TF) from time spent (or number of interactions) with the novel object (TN), and then dividing that value by the sum of those two values [DI = (TN − TF)/(TN + TF)][73].
# [6] = test system: SirT1 levels in N2a-E4 cells; assay: SirT1 AlphaLISA in N2a-E4 cells (HTS, secondary and dose-response testing); type: cell-based, murine; details: for pEC50: Mus musculus
# Method: For HTS we tested a portion of the UCLA compound library (10 plates) including the NIH Clinical Collection library (3 plates). Complete medium (25 µL) was added to each well of 384-well plates, then library compounds were added (250 nL) followed by a suspension of 4 × 10^5 cells/mL murine neuroblastoma N2a cells (25 μL) stably transfected with ApoE4 (N2a-E4). After incubation of the N2a-E4 cells with compounds for 24 hrs at 37 °C and 5% CO2, all but ~6 μL of medium were removed and AlphaLISA Lysis Buffer complemented with HALT protease/phosphatase inhibitor (20 μL, 1X final) was added to each well. To maximize lysis, the plates were frozen at −80 °C. For the AlphaLISA, lysates were thawed and vortexed for 1 min at 3000 rpm.
# The AlphaLISA comprises streptavidin donor beads, biotinylated anti-SirT1 N-terminal antibody (19A7AB4), and acceptor beads conjugated to the anti-SirT1 C-terminal antibody (1F3); when the target protein is bound by both antibodies, the beads are in close enough proximity for a transfer of ^1O2 and emission of a detectable signal (Supplementary Fig. S3). For the AlphaLISA, a 384-proxy plate was preloaded with AlphaLISA buffer (2 µL, 1X) with HALT (1X), then cell lysate (2 μL) was transferred to the proxy plate followed by the antibody-mix (2 μL). After incubation at room temperature for 1 hr, the donor bead mixture was added (2 µL) and incubated for an additional 30 min. The plates were then read in an Envision plate reader. All points are one replicate. The standard curve is generated by serial dilution of recombinant SirT1 to assess the linear range of the assay; study samples undergo serial dilution as well. We use A03 as a positive control in the HTS assay. The Z-value, while not ideal, was <1 for the assay (Supplementary Fig. S3).
# as §2
smiles,measurement,setting,value
"CC(N)C(=O)OC(C)(C)Cc1ccc(Cl)cc1 (centres unmarked) [A03, alaproclate]",Aβ1-42 in the Hip,[1],"lower than E4FAD Veh, but not significantly so"
same,sAPPα in the Hip,[1],only slightly higher
same,sAPPβ in the Hip,[1],not changed
same,Liver function in Phase 1 trial for depression,patients; human,some liver function changes were seen
same,Toxicity in second clinical study,patients; human,no toxicity up to 200 mg BID
same,Global scores in moderate to advanced AD patients,patients; small clinical studies,some improvements in global scores
same,factor by which brain levels after SQ exceed those after oral delivery,[2]; 10 mg/Kg SQ vs 10 mg/Kg oral,4 to 5
same,AUC plasma,"[2]; mice, SQ 10 mg/kg, unit as printed in Fig. 4d legend",1520 ng·h/mL
same,Tmax,"[2]; mouse, brain, sc, mice, SQ 10 mg/kg, n = 1",2 h
same,Cmax,"[2]; mouse, brain, sc, mice, SQ 10 mg/kg, n = 1, read-out: Cmax in brain",~2600 ng/g
same,Cmax,"[2]; mouse, brain, subcutaneous, mice, SQ 10 mg/Kg, read-out: Cmax in brain as molar concentration",~10 µM
same,AUC,"[2]; mouse, plasma, subcutaneous, mice, SQ 10 mg/kg",1520 ng·h/mL
same,SirT1 levels in ApoE4-transfected A172 cells,[3],significantly increased SirT1 levels
same,Body weights,E4FAD mice [4]; 56-day oral study,stayed the same
same,Signs of toxicity by cage-side observation,"E4FAD mice [4]; E4FAD mice, oral 56-day treatment",no signs of toxicity
same,SirT1 mRNA,SirT1 mRNA,increase in SirT1 mRNA
same,Protein concentration in cell lysates (viability surrogate),N2a-E4 cells,did not increase protein concentration
same,Exploration time in NOR,E4FAD mice [5],similar
same,pEC50,"[6]; read-out: EC50 for enhancement of SirT1, N2a-E4 cells, dose-response curve, n = 3 at each concentration",5.64
same,pEC50,"[6]; N2a-E4 cells, dose-response curve, n = 3 at each concentration, read-out: EC50 for enhancement of SirT1",5.70
same,Dose-response increase in SirT1 in secondary testing,"[6]; N2a-E4 cells, 1, 5 and 10 μM",showed a dose-response
same,"SirT1 increase, racemate vs enantiomers","[6]; N2a-E4 cells, 5 and 50 μM, n = 3 wells",increase SirT1 in N2a-E4 with high significance
same,SirT1 level in HTS,"[6]; N2a-E4 cells, 24 hrs, NIH Clinical Collection screen, A03 5 μM as positive control",significantly increased SirT1
same,SirT1 (normalized to protein),"[6]; N2a-E4 cells, A03 at 5 or 50 μM vs DMSO",dose-response increase
same,SirT1 increase vs DMSO control at 1 μM,"[6]; secondary assay, N2a-E4 cells, 1 μM, n = 6 wells",modest but significant increases
same,SirT1 increase vs DMSO control at 5 and 10 μM,"[6]; secondary assay, N2a-E4 cells, 5 and 10 μM, n = 6 wells",increased SirT1
